According to patent publication US20080050452A1, “METAL-CONTAINING FORMULATIONS AND METHODS OF USE” (priority 2006, published 2008):

Columns and labels:
[1] = tested on: B dolosa; test: Minimal bactericidal concentration (MBC) assay; assay type: cell-based, Burkholderia dolosa
Experimental: (§1) Minimal bactericidal concentration (MBC) assay—Overnight-grown MIC plates, prepared as described in Example 16, were evaluated to determine the MIC. Culture was then sampled from wells at and near the MIC using sterile inoculating loops, and transferred to fresh MHA plates to determine if viable bacteria remained. […] The MBC was determined as the well in the MIC plate which contained the lowest concentration of silver yielding no bacterial growth on the MHA plate.

[2] = tested on: Serratia marcescens; test: MIC assay; assay type: cell-based
[3] = tested on: B. multivorans; test: Minimal bactericidal concentration (MBC) assay; assay type: cell-based, Burkholderia multivorans
Experimental: as §1

[4] = tested on: Escherichia coli; test: MIC assay; assay type: cell-based
[5] = tested on: Ps. aeruginosa; test: Minimal bactericidal concentration (MBC) assay; assay type: cell-based, Pseudomonas aeruginosa
Experimental: as §1

[6] = tested on: Burkholderia multivorans; test: MIC assay; assay type: cell-based
[7] = tested on: Prot. mirabilis; test: Minimal bactericidal concentration (MBC) assay; assay type: cell-based, Proteus mirabilis; conditions: Prot. mirabilis isolate NP405
Experimental: as §1

[8] = tested on: Citrobacter freundii; test: MIC assay; assay type: cell-based; conditions: C. freundii isolate NP410
[9] = tested on: Pseudomonas aeruginosa; test: MIC assay; assay type: cell-based; conditions: for NP212 MIC: P. aeruginosa isolate NP212; for NP213 MIC: P. aeruginosa isolate NP213; for NP214 MIC: P. aeruginosa isolate NP 214
[10] = tested on: Klebsiella pneumoniae; test: MIC assay; assay type: cell-based
[11] = tested on: Streptococcus pyogenes; test: MIC assay; assay type: cell-based
[12] = tested on: Staphylococcus epidermidis; test: MIC assay; assay type: cell-based
[13] = tested on: Burkholderia dolosa; test: MIC assay; assay type: cell-based
[14] = tested on: Strep. pyogenes; test: Minimal bactericidal concentration (MBC) assay; assay type: cell-based, Streptococcus pyogenes
Experimental: as §1

[15] = tested on: Enterobacter cloacae; test: MIC assay; assay type: cell-based; conditions: Enterobacter cloacae
[16] = tested on: Staph epidermidis; test: Minimal bactericidal concentration (MBC) assay; assay type: cell-based, Staphylococcus epidermidis
Experimental: as §1

[17] = tested on: Ser. marcescens; test: Minimal bactericidal concentration (MBC) assay; assay type: cell-based, Serratia marcescens
Experimental: as §1

[18] = tested on: Staph. aureus; test: Minimal bactericidal concentration (MBC) assay; assay type: cell-based, Staphylococcus aureus
Experimental: as §1

[19] = tested on: Proteus mirabilis; test: MIC assay; assay type: cell-based; conditions: Prot. mirabilis isolate NP405
[20] = tested on: Staphylococcus aureus; test: MIC assay; assay type: cell-based; conditions: for NP101 MIC: Staph aureus isolate NP101; for NP102 MIC: Staph aureus isolate NP102; for NP103 MIC: Staph aureus isolate NP103
[21] = tested on: Streptococcus pneumoniae; test: MIC assay; assay type: cell-based; conditions: solutions in 0.1 M lactate buffer pH 4.0
[22] = tested on: K. pneumoniae; test: Minimal bactericidal concentration (MBC) assay; assay type: cell-based, Klebsiella pneumoniae
Experimental: as §1

[23] = tested on: E. coli; test: Minimal bactericidal concentration (MBC) assay; assay type: cell-based, Escherichia coli
Experimental: as §1

[24] = Ser. marcescens isolate NP402 (first listing)
[25] = Ser. marcescens isolate NP402 (second listing)
[26] = Ser. marcescens isolate NP408 (first listing)
[27] = Ser. marcescens isolate NP408 (second listing)
[28] = Ps. aeruginosa ATCC type strain 27317
[29] = formulation type Water/Lecithin
[30] = K. pneumoniae isolate NP403 (first listing)
[31] = K. pneumoniae isolate NP403 (second listing)
[32] = Staph epidermidis ATCC type strain 12228
[33] = Staph epidermidis isolate NP136
[34] = Staph. aureus ATCC type strain 6538
[35] = Staph. aureus ATCC type strain 700699

O=[N+]([O-])[O-].[Ag+] [AgNO3, silver nitrate]
3 µg/mL: MIC ([4]; E. coli (ATCC), solutions in 0.1 M lactate buffer pH 4.0) | MIC ([9]; P. aerug (ATCC), solutions in 0.1 M lactate buffer pH 4.0) | MIC ([9]; P. aerug. (clin.), solutions in 0.1 M lactate buffer pH 4.0) | MIC ([10]; Klebsiella pneumoniae, aerobic conditions (+)) | MIC ([10]; Klebsiella pneumoniae, anaerobic conditions (Aerobic −)) | MIC ([11]; S. pyog (clin. 303), solutions in 0.1 M lactate buffer pH 4.0) | MIC ([12]; S. epiderm (ATCC), solutions in 0.1 M lactate buffer pH 4.0)
13 parts silver per million: MBC [7]
6 µg/mL: MIC ([2]; Serratia marcescens, aerobic conditions (+))
21 parts silver per million: MBC ([14]; Strep. pyogenes isolate NP304) | MBC ([14]; Strep. pyogenes isolate NP306)
21 µg/mL: MIC ([21]; S. pneumo (clin 315))
11 µg/mL: MIC ([20]; S. aureus (ATCC), solutions in 0.1 M lactate buffer pH 4.0) | MIC ([21]; S. pneumo (clin 314))
2 ppm: NP212 MIC ([9]; formulation type Lactate)
25 µg/mL: MIC ([15]; anaerobic conditions (Aerobic −))
13 µg/mL: MIC ([2]; Serratia marcescens, anaerobic conditions (Aerobic −)) | MIC ([15]; aerobic conditions (+))
9 ppm: NP101 MIC ([20]; formulation type Lactate) | NP102 MIC ([20]; formulation type Lactate) | NP103 MIC ([20]; formulation type Lactate)
1 parts silver per million: MIC ([4]; E. coli ATCC type strain 43745) | MIC ([4]; E. coli isolate NP412) | MBC ([5]; Ps. aeruginosa isolate NP206) | MIC ([9]; Ps. aeruginosa ATCC type strain 9027) | MIC ([9]; Ps. aeruginosa isolate NP201) | MIC ([9]; Ps. aeruginosa isolate NP204) | MIC ([9]; Ps. aeruginosa isolate NP206) | MIC ([10]; K. pneumoniae isolate NP406) | MBC ([22]; K. pneumoniae isolate NP406) | MBC ([23]; E. coli isolate NP412)
6 parts silver per million: MIC [2, 24] | MIC [2, 25] | MIC [2, 26] | MIC [10, 30] | MIC [10, 31] | MIC ([11]; Strep. pyogenes isolate NP304) | MIC ([11]; Strep. pyogenes isolate NP306) | MBC [17, 24] | MBC [17, 25] | MBC [17, 26] | MBC [18, 34] | MBC [18, 35] | MBC ([18]; Staph. aureus isolate NP102) | MBC ([18]; Staph. aureus isolate NP103) | MIC [19] | MIC [20, 34] | MIC ([20]; Staph. aureus isolate NP101) | MIC ([20]; Staph. aureus isolate NP102) | MIC ([20]; Staph. aureus isolate NP103) | MBC [22, 30]
3 ppm: NP212 MIC [9, 29] | NP212 MIC ([9]; formulation type Water/PVA) | NP214 MIC ([9]; formulation type Water/PVA)
2 parts silver per million: MBC ([1]; B dolosa isolate A4) | MIC ([6]; B. multivorans isolate B4) | MIC [9, 28] | MIC ([13]; B dolosa isolate A3) | MIC ([13]; B dolosa isolate A4)
11 parts silver per million: MIC [2, 27] | MBC [17, 27] | MBC ([18]; Staph. aureus isolate NP101)
5 µg/mL: MIC ([11]; S. pyog (clin. 304), solutions in 0.1 M lactate buffer pH 4.0) | MIC ([20]; S. aureus (clin.), solutions in 0.1 M lactate buffer pH 4.0)
1 ppm: NP213 MIC ([9]; formulation type Lactate) | NP213 MIC [9, 29] | NP213 MIC ([9]; formulation type Water/PVA) | NP214 MIC ([9]; formulation type Lactate) | NP214 MIC [9, 29]
3 parts silver per million: MBC ([1]; B dolosa isolate A3) | MBC ([3]; B. multivorans isolate B1) | MBC ([3]; B. multivorans isolate B2) | MBC ([3]; B. multivorans isolate B4) | MBC [5, 28] | MBC ([5]; Ps. aeruginosa isolate NP201) | MBC ([5]; Ps. aeruginosa isolate NP204) | MIC ([6]; B. multivorans isolate B1) | MIC ([6]; B. multivorans isolate B2) | MIC [8] | MIC ([10]; K. pneumoniae isolate NP401) | MIC ([11]; Strep. pyogenes isolate NP303) | MIC [12, 32] | MIC [12, 33] | MBC [16, 32] | MBC [16, 33] | MIC [20, 35] | MBC ([22]; K. pneumoniae isolate NP401) | MBC [22, 31]
0.4 parts silver per million: MIC ([4]; E. coli ATCC type strain 8739) | MBC ([23]; E. coli ATCC type strain 8739) | MBC ([23]; E. coli ATCC type strain 43745)
11 ppm: NP101 MIC [20, 29] | NP101 MIC ([20]; formulation type Water/PVA) | NP102 MIC [20, 29] | NP102 MIC ([20]; formulation type Water/PVA) | NP103 MIC [20, 29] | NP103 MIC ([20]; formulation type Water/PVA)
10 parts silver per million: MBC ([14]; Strep. pyogenes isolate NP303)
